Assay: 3-Month stability data for TTI-101 Batches B, C, D and E stored at 40° C./75% RH
Type: physicochemical
Procedure: Exemplary HPLC conditions: diluent was 0.1% trifluoroacetic acid (TFA) in acetonitrile, Mobile Phase A was 0.05% TFA in water, and Mobile Phase B was 0.05% TFA in acetonitrile, column (Agilent, Eclipse XDB-C18, 3.0×100 mm, particle size 1.8 μm), flow (0.425 mL/min), and detector (280 nm diode array).
Batches B, C, and D were prepared according to Method 5, Method 4, and Method 3, respectively, as described in Example 1. Batch E was prepared analogously using according to Method 1 as described in Example 1.
Samples of TTI-101 (Batches B, C, D, and E) were stored at 40° C./75% RH for 3 months. The batches were individually stored in an low density polyethylene (LDPE) bag enclosed with a Nylon cable tie and then transferred to another LDPE bag and enclosed with a Nylon cable tie. The enclosure was put into a high density polyethylene (HDPE) bottle and closed with a polyethylene-lined polypropylene cap. For Batch B only, another sample was enclosed in a screw-top amber glass bottle and closed with a cap. The samples were stored under the above-identified conditions.

With `COc1ccc(S(=O)(=O)Nc2cc(-c3c(O)ccc4ccccc34)c(O)c3ccccc23)cc1` [TTI-101] the “Impurity RRT 0.84, Area %” value (0 M) was “NQ (≥0.02% and <0.05%)”, the “Impurity RRT 0.87, Area %” value (0 M) was “NQ (≥0.02% and <0.05%)” and the “Impurity RRT 1.06 (Cmp 4), Area %” value (0 M) was “NQ (≥0.02% and <0.05%)”. For the same molecule, the “Impurities Total, Area %” value (0 M, listed as Batch C) was 0.4 Area %, the “Impurity RRT 0.99, Area %” value (0 M, listed as Batch C) was 0.06 Area % and the “Impurity RRT 1.16 (Cmp 6), Area %” value (0 M, listed as Batch C) was 0.31 Area %. The “Impurities Total, Area %” value (0 M, listed as Batch D) was 0.1 Area %, the “Impurity RRT 1.16 (Cmp 6), Area %” value (0 M, listed as Batch D) was 0.10 Area % and the “Impurities Total, Area %” value (0 M, listed as Batch E) was 0.1 Area %. The “Impurity RRT 1.16 (Cmp 6), Area %” value (0 M, listed as Batch E) was 0.10 Area %, the “Impurities Total, Area %” value (1 M, listed as Batch C) was 0.1 Area % and the “Impurity RRT 0.99, Area %” value (1 M, listed as Batch C) was “NQ (≥0.02% and <0.05%)”. The “Impurity RRT 1.17 (Cmp 6), Area %” value (1 M, listed as Batch C) was 0.12 Area %, the “Impurities Total, Area %” value (1 M, listed as Batch D) was 0.1 Area % and the “Impurity RRT 1.17 (Cmp 6), Area %” value (1 M, listed as Batch D) was 0.09 Area %. For the same molecule, the “Impurities Total, Area %” value (1 M, listed as Batch E) was 0.1 Area %, the “Impurity RRT 0.99, Area %” value (1 M, listed as Batch E) was “NQ (≥0.02% and <0.05%)” and the “Impurity RRT 1.17 (Cmp 6), Area %” value (1 M, listed as Batch E) was 0.09 Area %. The “Impurity RRT 0.99, Area %” value (2 M) was “NQ (≥0.02% and <0.05%)”, the “Impurity RRT 1.06 (Cmp 4), Area %” value (2 M) was “NQ (≥0.02% and <0.05%)” and the “Impurities Total, Area %” value (2 M, listed as Batch C) was 0.1 Area %. For the same molecule, the “Impurity RRT 1.17 (Cmp 6), Area %” value (2 M, listed as Batch C) was 0.13 Area %, the “Impurities Total, Area %” value (2 M, listed as Batch D) was 0.1 Area % and the “Impurity RRT 1.17 (Cmp 6), Area %” value (2 M, listed as Batch D) was 0.09 Area %. For the same molecule, the “Impurities Total, Area %” value (2 M, listed as Batch E) was 0.1 Area %, the “Impurity RRT 1.17 (Cmp 6), Area %” value (2 M, listed as Batch E) was 0.09 Area % and the “Impurity RRT 0.95, Area %” value (3 M) was “NQ (≥0.02% and <0.05%)”. The “Impurity RRT 0.98, Area %” value (3 M) was “NQ (≥0.02% and <0.05%)”, the “Impurity RRT 1.06 (Cmp 4), Area %” value (3 M) was “NQ (≥0.02% and <0.05%)” and the “Impurities Total, Area %” value (3 M, listed as Batch C) was 0.3 Area %. The “Impurity RRT 1.16 (Cmp 6), Area %” value (3 M, listed as Batch C) was 0.31 Area %, the “Impurities Total, Area %” value (3 M, listed as Batch D) was 0.1 Area % and the “Impurity RRT 1.16 (Cmp 6), Area %” value (3 M, listed as Batch D) was 0.11 Area %. The “Impurities Total, Area %” value (3 M, listed as Batch E) was 0.2 Area %, the “Impurity RRT 1.16 (Cmp 6), Area %” value (3 M, listed as Batch E) was 0.16 Area % and the Purity (%) (T = 0 month (0 M), listed as Batch C) was 99.6%. For the same molecule, the Purity (%) (T = 0 month (0 M), listed as Batch D) was 99.9%, the Purity (%) (T = 0 month (0 M), listed as Batch E) was 99.9% and the Purity (%) (T = 1 month (1 M), listed as Batch C) was 99.8%. For the same molecule, the Purity (%) (T = 1 month (1 M), listed as Batch D) was 99.9%, the Purity (%) (T = 1 month (1 M), listed as Batch E) was 99.9% and the Purity (%) (T = 2 months (2 M), listed as Batch C) was 99.8%. It also gave a Purity (%) (T = 2 months (2 M), listed as Batch D) of 99.9%, a Purity (%) (T = 2 months (2 M), listed as Batch E) of 99.9% and a Purity (%) (T = 3 months (3 M), listed as Batch C) of 99.6%. It also gave a Purity (%) (T = 3 months (3 M), listed as Batch D) of 99.9% and a Purity (%) (T = 3 months (3 M), listed as Batch E) of 99.8%.

— patent US20240033234A1, “THERAPEUTIC COMPOUNDS, FORMULATIONS, AND USE THEREOF” (Tvardi Therapeutics, Inc., priority 2022, published 2024)
